This note sets out measurements from patent US20070203118A1, “SUBSTITUTED TETRAHYDROISOQUINOLINES USED IN THE FORM OF MMP INHIBITORS, METHOD FOR THE PRODUCTION AND USE THEREOF IN THE FORM OF DRUGS” (SANOFI-AVENTIS DEUTSCHLAND GMBH, priority 2004, published 2007).

pIC50: −log10 of the molar value. Bounds are passed on as bounds.

Assay [1] deals with T1, catalytic domain of human collagenase-1 (MMP-1) (Homo sapiens, UniProt P03956).
T1 construct: Determination of the Enzymatic Activity of the Catalytic Domain of Human Collagenase-1 (MMP-1); purchased Biocol, Potsdam MMP1
T1 sequence (P03956 100-269 limits assumed): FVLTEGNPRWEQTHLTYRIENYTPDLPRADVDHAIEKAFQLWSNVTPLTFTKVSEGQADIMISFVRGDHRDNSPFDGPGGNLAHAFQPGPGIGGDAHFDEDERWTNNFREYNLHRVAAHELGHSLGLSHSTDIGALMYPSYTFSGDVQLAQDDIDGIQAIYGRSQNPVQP
The assay can be described thus: Enzymatic activity of the catalytic domain of human collagenase-1 (MMP-1), fluorogenic substrate. The class given is biochemical. The protocol: Determination of the Enzymatic Activity of the Catalytic Domain of Human Collagenase-1 (MMP-1)
Activation of the Pro enzyme: 2 parts by volume of Pro enzyme are incubated with 1 part by volume of APMA solution at 37° C. for 1 hour. The APMA solution is prepared from a 10 mmol/l p-aminophenylmercuric acetate solution in 0.1 mmol/l NaOH by dilution with 3 parts by volume of tris/HCl buffer pH7.5 (see below). The pH is adjusted to between 7.0 and 7.5 by adding 1 mmol/l HCl. After activation of the enzyme, it is diluted with the tris/HCl buffer to a concentration of 2.5 μg/ml.
The enzymic activity is measured by incubating 10 μl of enzyme solution with 10 μl of a 3% strength (v/v) buffered dimethyl sulfoxide solution (reaction 1) for 15 minutes. The enzyme inhibitor activity is measured by incubating 10 μl of enzyme solution with 10 μl of a 3% strength (v/v) buffered dimethyl sulfoxide solution which contains the enzyme inhibitor (reaction 2).
The enzymic reaction both in the case of reaction 1 and in the case of reaction 2 is followed after addition of 10 μl of a 3% strength (v/v) aqueous dimethyl sulfoxide solution which contains 0.3 mmol/l of the substrate by fluorescence spectroscopy (328 nm (extinction)/393 nm (emission)), and the enzymic activity is presented as increase in extinction per minute.
The effect of the inhibitor is calculated as percentage inhibition by the following formula: % inhibition=100−[(increase in extinction/minute in reaction 2)/increase in extinction/minute in reaction 1)×100].
The IC50, i.e. the inhibitor concentration necessary for 50% inhibition of the enzymic activity, is determined graphically by plotting the percentage inhibitions at various inhibitor concentrations.
The buffer solution contains 0.05% Brij (Sigma, Deisenhofen, Germany) and 0.1 mol/l tris/HCl, 0.1 mol/l NaCl, 0.01 mol/l CaCl2 (pH=7.5).
The enzyme solution contains 2.5 μg/ml of the enzyme domain.
The substrate solution contains 0.3 mmol/l of the fluorogenic substrate (7-methoxycoumarin-4-yl)acetyl-Pro-Leu-Gly-Leu-3-(2′,4′-dinitrophenyl)-L-2,3-diaminopropionyl-Ala-Arg-NH2 (Bachem, Heidelberg, Germany).

The target in assay [2] is T2, catalytic domain of human gelatinase-A (MMP-2) (Homo sapiens, UniProt P08253).
T2 construct: Determination of the Enzymatic Activity of the Catalytic Domain of Human Gelatinase-A (MMP-2); purchased INVITEK, Berlin
T2 sequence (P08253 110-660): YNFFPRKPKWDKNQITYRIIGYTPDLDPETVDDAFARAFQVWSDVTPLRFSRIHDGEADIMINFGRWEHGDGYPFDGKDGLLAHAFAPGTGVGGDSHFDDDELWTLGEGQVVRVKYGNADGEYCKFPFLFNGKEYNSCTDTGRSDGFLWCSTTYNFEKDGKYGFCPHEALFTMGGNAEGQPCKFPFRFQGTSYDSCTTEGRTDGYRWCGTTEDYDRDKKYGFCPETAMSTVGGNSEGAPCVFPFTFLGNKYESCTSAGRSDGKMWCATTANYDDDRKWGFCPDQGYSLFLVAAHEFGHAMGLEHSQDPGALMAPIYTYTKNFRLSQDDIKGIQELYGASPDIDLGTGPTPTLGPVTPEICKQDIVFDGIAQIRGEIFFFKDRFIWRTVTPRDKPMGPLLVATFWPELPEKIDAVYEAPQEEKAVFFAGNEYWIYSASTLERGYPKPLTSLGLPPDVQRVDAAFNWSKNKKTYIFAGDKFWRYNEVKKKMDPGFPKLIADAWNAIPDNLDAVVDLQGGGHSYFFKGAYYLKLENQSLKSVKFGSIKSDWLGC
Kind of assay: Enzymatic activity of the catalytic domain of human gelatinase-A (MMP-2), fluorogenic substrate. The class given is biochemical. The protocol:
Determination of the Enzymatic Activity of the Catalytic Domain of Human Gelatinase-A (MMP-2)
Activation of the proenzyme: 2 parts by volume of proenzyme were incubated with 1 part by volume of APMA solution at 37° C. for 0.5 hours. The APMA solution was prepared from a 10 mmol/l p-aminophenylmercuric acetate solution in 0.1 mmol/l NaOH by dilution with 3 parts by volume of Tris/HCl buffer pH 7.5 (see below). The pH was adjusted to between 7.0 and 7.5 by adding 1 mmol/l HCl. After activation of the enzyme it was diluted with the Tris/HCl buffer to a concentration of 0.83 μg/ml.
The enzymic activity was measured by incubating 10 μl of enzyme solution with 10 μl of a 3% strength (v/v) buffered dimethyl sulfoxide solution (reaction 1) for 15 minutes. The enzyme inhibitor activity was measured by incubating 10 μl of enzyme solution with 10 μl of a 3% strength (v/v) buffered dimethyl sulfoxide solution which contained the enzyme inhibitor (reaction 2).
The enzymic reaction both in the case of reaction 1 and in the case of reaction 2 was followed after addition of 10 μl of a 3% strength (v/v) aqueous dimethyl sulfoxide solution which contained 0.3 mmol/l of the substrate by fluorescence spectroscopy (328 nm (extinction)/393 nm (emission)).
The enzymic activity has been presented as increase in extinction/minute.
The effect of the inhibitor was calculated as percentage inhibition by the following formula: % inhibition=100−[(increase in extinction/minute in reaction 2)/(increase in extinction/minute in reaction 1)×100].
The IC50, which is the concentration of inhibitor which is necessary for 50% inhibition of the enzymic activity, was determined graphically by plotting the percentage inhibitions at various inhibitor concentrations.
The buffer solution contained 0.05% Brij (Sigma, Deisenhofen, Germany) and 0.1 mol/l Tris/HCl, 0.1 mol/l NaCl, 0.01 mol/l CaCl2 (pH=7.5). The enzyme solution contained […] of the enzyme domain. The substrate solution contained 0.3 mmol/l of the fluorogenic substrate (7-methoxycoumarin-4-yl)acetyl-Pro-Leu-Gly-Leu-3-(2′,4′-dinitrophenyl)-L-2,3-diaminopropionyl-Ala-Arg-NH2 (Bachem, Heidelberg, Germany).

For orientation: pIC50 means −log10 of the IC50, conventionally taken in molar units. Low readings indicate a high IC50, high ones a low IC50. As for “2-{2-[4-(4-fluorophenoxy)phenyl]ethanesulfonyl}-1,2,3,4-tetrahydroisoquinoline-1-hydroxycarboxamide [Compound 20]”, the pIC50 in assay [1] is 6.52; in assay [2] it was 8.70.

`O=C(NO)[C@H]1c2ccccc2CCN1S(=O)(=O)c1ccc(Oc2ccc(Cl)cc2)cc1` [Compound 9]: the pIC50 is 7.38 in assay [1] and 8.70 in assay [2].

Consider `O=C(NO)[C@H]1c2ccccc2CCN1S(=O)(=O)c1ccc(Oc2ccncc2)cc1` [Compound 11], for which the pIC50 was 6.30 in assay [1] and 8.64 in assay [2].

Regarding `COc1cc2c(cc1OC)[C@@H](C(=O)NO)N(S(=O)(=O)c1ccc(-c3ccc(Cl)cc3)cc1)CC2` [Compound 15], the pIC50 in assay [1] was 6.52; in assay [2] it was 9.00.

For `COc1ccc(F)c2c1[C@H](C(=O)NO)N(S(=O)(=O)c1ccc(-c3ccc(Cl)cc3)cc1)CC2` [Compound 18], the results for the pIC50 in assay [1] and in assay [2] were 5.40 and 8.35, respectively.

With `O=C(NO)[C@H]1c2ccccc2CCN1S(=O)(=O)c1ccc(Oc2ccc(C(F)(F)F)cc2)cc1` [Compound 21, (R)-2-[4-(4-trifluoromethylphenoxy)benzenesulfonyl]-1,2,3,4-tetrahydro-isoquinoline-1-hydroxycarboxamide], the pIC50 in assay [1] was 6.00; in assay [2], 8.66.

`O=C(NO)[C@H]1c2ccccc2CCN1S(=O)(=O)c1ccc(Oc2ccc(OCC(F)(F)F)cc2)cc1` [Compound 22]: the pIC50 in assay [1] was 5.80; in assay [2], 7.60.

As to `O=C(NO)[C@H]1c2ccccc2CCN1S(=O)(=O)c1ccc(Oc2ccc(OC(F)(F)F)cc2)nc1` [Compound 43, (R)-2-[6-(4-trifluoromethoxyphenoxy)pyridine-3-sulfonyl]-1,2,3,4-tetrahydro-isoquinoline-1-hydroxycarboxamide], the pIC50 in assay [1] was < 5.00; in assay [2], 7.64.

On to `O=C(NO)[C@H]1c2ccccc2CCN1S(=O)(=O)c1ccc(Oc2ccc(Cl)cc2)nc1` [Compound 45, (R)-2-[6-(4-chlorophenoxy)pyridine-3-sulfonyl]-1,2,3,4-tetrahydroisoquinoline-1-hydroxycarboxamide], for which the pIC50 in assay [1] is 5.70; in assay [2] it was 8.70.

As to “(R)-4-(1-hydroxycarbamoyl-3,4-dihydro-1H-isoquinoline-2-sulfonyl)phenyl benzoate [Compound 48]”, the pIC50 was 7.05 in assay [1] and 8.70 in assay [2].
